Measurements from patent US8741871B2, “Trehalose compound, method for producing same, and pharmaceutical product containing the compound” (priority 2008, dated 2014).

What was measured:
rabbit neutrophils = test: Measurement of amount of active oxygen released from rabbit neutrophils; type: cell-based; conditions: 50 μM, 2 hours; FIG. 3
Method: 5 ml of the ACD solution was placed in a 20-ml syringe (injection needle [Nipro]), so that the inside of the syringe was entirely rinsed therewith. 20 ml of blood was collected from the central auricular artery of a rabbit using the syringe, and the collected blood was gently shaken upside down. Thereafter, the blood was dispensed into three centrifuge tubes (15 ml type; Falcon), and each tube was then subjected to centrifugation at 4° C. at 1,500 rpm for 5 minutes. Thereafter, the supernatant was recovered into a centrifuge tube (50 ml type; Falcon). A 1.2% dextran-PBS solution was added to the recovered supernatant in an amount equal the supernatant, and the obtained mixture was then gently shaken upside down. Thereafter, the mixture was left at a room temperature for 30 minutes or more. The emergence of an interface was confirmed, and the supernatant was placed in a new centrifuge tube (50 ml type; Falcon). […]
The influence of the test compound on the release of active oxygen from rabbit neutrophils was measured by the following procedures.
Neutrophils (1.0×10^5 cells/100 μl) were plated on a 96-well plate (Falcon). […] The obtained mixture was incubated at 37° C. for 2 hours, and the amount of active oxygen released was measured using a fluorescence measurement apparatus (Ex: 485 nm, Em: 535 nm).

[1] = system: mouse intraperitoneal macrophages; test: Measurement of cytokine released from mouse intraperitoneal macrophages (ELISA); type: cell-based; conditions: 100 μM test compound, two hours
Method: Mouse intraperitoneal macrophages, a 40 mM test compound solution, and an RPMI 1640 medium were prepared in the same manner as described above.
Macrophages were added to a TC-Plate, so that they became 80% confluent. The macrophages were incubated at 37° C. for 2 hours. Thereafter, the supernatant was discarded, and the cells were then washed with 500 μl of RPMI 1640 medium. This washing operation was repeatedly carried out two times. An emulsion solution of the test compound (final concentration: 100 μM) was allowed to act on the macrophages, and two hours later, the medium was transferred into another Eppendorf tube. […] This supernatant was used as a sample, and the released cytokines were analyzed using ELISA kit (IL-6, TNF-α Quantikine Immunoassay (R & D System (trademark)).

[2] = system: Pseudomonas aeruginosa (Fhu-071115 strain); type: in vivo
Method: As a test compound, 1 mg of the compound synthesized by the method described in Production Example α-1 was weighed. An emulsion solution of the test compound was prepared in the same manner as described above.
Pseudomonas aeruginosa (Fhu-071115 strain) derived from patients was used, and it was prepared as follows.
L-broth was withdrawn with a 40-ml measuring pipette and was then added to a 200-ml flask, and the flask was then sealed with a sponge plug. At the same time, 5 ml of L-broth was added to each of two other screw-top test tubes. The thus prepared flask and screw-top test tubes were subjected to an autoclave at 121° C. for 20 minutes. After the L-broth medium had been cooled to a room temperature, Pseudomonas aeruginosa, which had been stored in an ultra low temperature freezer, was added into 40 ml of the L-broth the medium in a clean bench. The obtained mixture was shaken in an incubator overnight. Thereafter, the resultant was centrifuged at 9000 rpm for 15 minutes, and the supernatant was then removed. […] This process was carried out three times. Thereafter, 4.5 ml of sterilized normal saline solution was added to the resultant, and the mixture was then blended with the use of a Vortex mixer. The obtained solution was used as a strain stock solution. Using a 1000-fold diluted strain solution, the number of cells was counted with OneCell Counter. Thereafter, the strain stock solution was diluted to a desired concentration, and the thus diluted solution was then used in the subsequent test.
Mice were divided into two groups, and the following two types of experiments were carried out. • (A) The aforementioned emulsion solution containing the test compound (100 μg/mouse) was intraperitoneally administered to a group of three mice (ICR, 5-week-old). Three hours later, Pseudomonas aeruginosa (5.0×10^7 cells/mouse) was intraperitoneally administered to the mice. Thereafter, the condition of the mice was observed. (B) Pseudomonas aeruginosa (2.0×10^7 cells/mouse) was intraperitoneally administered to a group of three mice (ICR, 5-week-old). Three hours later, the aforementioned emulsion solution containing the test compound (100 μg/mouse) was intraperitoneally administered to the mice. Thereafter, the condition of the mice was observed.

[3] = system: Welch bacillus (C. perfringens Type-A NCTC8237); type: in vivo; conditions: pre-administration 100 μg/mouse i.p., twenty-four hours later 5.0×10^7 CFU/mL Welch bacillus i.p.; FIG. 16
[4] = system: mouse intraperitoneal infiltrating cells; test: Cell infiltration into mouse abdominal cavity (cell count, Giemsa staining, flow cytometry); conditions: 100 μg/mouse i.p.
Pseudomonas aeruginosa = type: in vivo
[5] = twenty-four hours after administration, flow cytometry

## CCCCCCCCCCC(CCCCCCCCCC)C(=O)OCC1O[C@H](O[C@H]2OC(COC(=O)C(CCCCCCCCCC)CCCCCCCCCC)[C@@H](O)C(O)C2O)C(O)C(O)[C@@H]1O (stereo partly drawn) [Example 1, 6,6′-bis-O-(2-decyldodecanoyl)-α,α′-trehalose]
Rabbit neutrophils
  action to activate the release of active oxygen from rabbit neutrophils, compared with TDCM: approximately two times higher than the activity of TDCM
[1]; vehicle approximately 15 pg/ml
  amount of IL-6 released from mouse intraperitoneal macrophages: approximately 200 pg/ml
[1]; vehicle approximately 80 pg/ml
  amount of TNF-α released from mouse intraperitoneal macrophages: approximately 1000 pg/ml
[2]; Group A: pre-administration 100 μg/mouse i.p., three hours later Pseudomonas aeruginosa 5.0×10^7 cells/mouse i.p., 2 hours later
  Number of surviving mice/number of treated mice, 2 hours later (Group A): 3/3
[2]; Group A: pre-administration 100 μg/mouse i.p., three hours later Pseudomonas aeruginosa 5.0×10^7 cells/mouse i.p., 4 hours later
  Number of surviving mice/number of treated mice, 4 hours later (Group A): 3/3
[2]; Group A: pre-administration 100 μg/mouse i.p., three hours later Pseudomonas aeruginosa 5.0×10^7 cells/mouse i.p., 15 hours later
  Number of surviving mice/number of treated mice, 15 hours later (Group A): 2/3
[2]; Group A: pre-administration 100 μg/mouse i.p., three hours later Pseudomonas aeruginosa 5.0×10^7 cells/mouse i.p., 24 hours later
  Number of surviving mice/number of treated mice, 24 hours later (Group A): 2/3
[2]; Group A: pre-administration 100 μg/mouse i.p., three hours later Pseudomonas aeruginosa 5.0×10^7 cells/mouse i.p., 48 hours later
  Number of surviving mice/number of treated mice, 48 hours later (Group A): 2/3
[2]; Group B: Pseudomonas aeruginosa 2.0×10^7 cells/mouse i.p., three hours later test compound 100 μg/mouse i.p., 2 hours later
  Number of surviving mice/number of treated mice, 2 hours later (Group B): 3/3
[2]; Group B: Pseudomonas aeruginosa 2.0×10^7 cells/mouse i.p., three hours later test compound 100 μg/mouse i.p., 4 hours later
  Number of surviving mice/number of treated mice, 4 hours later (Group B): 3/3
[2]; Group B: Pseudomonas aeruginosa 2.0×10^7 cells/mouse i.p., three hours later test compound 100 μg/mouse i.p., 15 hours later
  Number of surviving mice/number of treated mice, 15 hours later (Group B): 3/3
[2]; Group B: Pseudomonas aeruginosa 2.0×10^7 cells/mouse i.p., three hours later test compound 100 μg/mouse i.p., 24 hours later
  Number of surviving mice/number of treated mice, 24 hours later (Group B): 1/3
[2]; Group B: Pseudomonas aeruginosa 2.0×10^7 cells/mouse i.p., three hours later test compound 100 μg/mouse i.p., 48 hours later
  Number of surviving mice/number of treated mice, 48 hours later (Group B): 1/3

## CCCCCCCCCC(CCCCCCCCC)CC(=O)OCC1O[C@H](O[C@H]2OC(COC(=O)CC(CCCCCCCCC)CCCCCCCCC)[C@@H](O)C(O)C2O)C(O)C(O)[C@@H]1O (stereo partly drawn) [Example 9, 6,6′-bis-O-(3-nonyldodecanoyl)-α,α′-trehalose]
[3]
  lethality of Welch bacillus-infected mice: significantly suppressed
[4]; 2 hours or 24 hours after administration, FIG. 12
  infiltrating cells in the abdominal cavity of mice over time: an increase in infiltrating cells was observed time-dependently
[4]; [5]
  abundance ratio of the CD11b-positive cells and CD4-positive cells compared with vehicle: hardly changed
  total number of CD11b-positive cells, CD4-positive cells and CD8-positive cells compared with vehicle: 15 to 20 times
[4]; twenty-four hours after administration, flow cytometry, FIGS. 13 to 15
  abundance ratio of the CD8-positive cells compared with vehicle: 2 to 3 times
[4]; twenty-four hours later, FIG. 12
  number of infiltrating cells in mouse abdominal cavity compared with vehicle: 15 to 20 times
Pseudomonas aeruginosa; 100 μg/mouse i.p. three hours after infection with Pseudomonas aeruginosa, FIG. 18
  lethality of Pseudomonas aeruginosa-infected mice, post-administration: significantly suppressed
Pseudomonas aeruginosa; pre-administration 100 μg/mouse i.p., twenty-four hours later 3.0×10^10 CFU/mL Pseudomonas aeruginosa i.p., FIG. 17
  lethality of Pseudomonas aeruginosa-infected mice, pre-administration: significantly suppressed
